Experimental data: patent publication US20150051220A1, “COMPOUNDS FOR USE IN THERAPY” (GLUCOX BIOTECH AB, priority 2012, published 2015)

Assay: Stroke model, transient middle cerebral artery occlusion (tMCAO)
Type: in vivo
Details: mice, 60 min tMCAO, 3.2 mg/kg i.p. at 2 h and 12 h, sacrificed 24 h after tMCAO, vs vehicle
Experimental: FIG. 4 is a bar chart showing the infarct volume (mm3) in a mice model of stroke, where mice were treated with the inventive compound ethyl 2-(2-(4-(furan-2-carbonyl)piperazin-1-yl)acetamido)-5,6-dihydro-4H-cyclopenta[b]thiophene-3-carboxylate (“INVENTION”) or with vehicle (“CONTROL”).
The stroke disease model used in this example was mice that were subjected to transient middle cerebral artery occlusion (tMCAO) to mimic the mechanisms of ischemic stroke. Male mice weighing 20 g, was subjected to a 60 min of tMCAO as previously described (Elevers M et al., Sci. Signal 3: ra1, 2010; Bena_Erro A et al., Sci Signal 2: ra67). Sham-operated mice were used as control.
For the i.p. administrations performed in this study, 3.5 mg of ethyl 2-(2-(4-(furan-2-carbonyl)piperazin-1-yl)acetamido)-5,6-dihydro-4H-cyclopenta[b]thiophene-3-carboxylate was dissolved in 1 ml of DMSO and 5 ml of 20% Cremophor ELP in PBS then followed by additional PBS. The administered dose used in the experiment was 3.2 mg/kg and in the controls the same injection volume of vehicle was used. Administration was made at 2 h and 12 h for each mouse.
To determine infarct size and effect of Nox4 inhibitor, mice were sacrificed 24 h after tCMCAO and lesion volumes of the brain were determined according to a previously described methodology (Kleinschnitz et al, vide supra).

## CCOC(=O)c1c(NC(=O)CN2CCN(C(=O)c3ccco3)CC2)sc2c1CCC2 [the inventive compound, ethyl 2-(2-(4-(furan-2-carbonyl)piperazin-1-yl)acetamido)-5,6-dihydro-4H-cyclopenta[b]thiophene-3-carboxylate]
  lesion volume of the brain (infarct volume): significantly lower lesion volume of the brain
